Measured values reported in PMC6287599, “2,6-Bis(2-Benzimidazolyl)Pyridine (BBP) Is a Potent and Selective Inhibitor of Small Conductance Calcium-Activated Potassium (SK) Channels” (Frontiers in Pharmacology, 2018).
Read-outs that look alike come from different tables or passages of the source. Positions of bridges follow the written chain, without caps; N, C: chain ends. No end group written: not given here.

Assays:
rSK3 H491N = target: T1, rSK3 H491N (Rattus norvegicus, UniProt P70605, H486N); settings: cited from earlier work
T1 construct: expressed in transfected cells; host or cells: HEK293 (transient, co-transfected with eGFP)

hBK = target: T2, hBK (Homo sapiens, UniProt Q12791); assay: Manual whole cell patch clamp, HEK293 transiently transfected with hBK; type: cell-based; settings: paxilline 3 μM, after BBP 1 μM
T2 construct: expressed in transfected cells; host or cells: HEK293 (transient, co-transfected with eGFP)
Method: HEK293 cells were transiently co-transfected with the plasmid of interest (hBK, hSK1, hSK2, hSK3 WT, rSK3 H491N, or hIK) and eGFP using standard Lipofectamine™ 2000 (Thermo Fisher Scientific, Waltham, Massachussets, USA) transfection protocols. After transfection, cells were incubated overnight before the experiments.
Manual patch clamp experiments were performed at room temperature in the whole cell configuration with a HEKA EPC9 amplifier and the Patchmaster software (HEKA Elektronik, Ludwigshafen, Germany). All currents were elicited every 2 s using an incremental 200 ms voltage-ramp protocol starting at −80 mV and finishing at +80 mV from a holding potential of 0 mV. […]
To assess the effect of BBP on other calcium-activated potassium channels (hBK, hSK3 WT, rSK3 H491N, and hIK), each individual current was first normalized to its cell size using membrane's capacitance (pA/pF) before statistical analysis. […] Statistical significance between saline and the effect of both BBP and the corresponding reference compound was determined for each channel using one-way ANOVA analysis. […]
After testing BBP on the three SK channel subtypes, we decided to explore whether other calcium-activated potassium channels were affected by the compound. […] Finally, a positive control was used to inhibit the remaining current and quantify the total effect of BBP. […]

T2 sequence (Q12791 whole entry): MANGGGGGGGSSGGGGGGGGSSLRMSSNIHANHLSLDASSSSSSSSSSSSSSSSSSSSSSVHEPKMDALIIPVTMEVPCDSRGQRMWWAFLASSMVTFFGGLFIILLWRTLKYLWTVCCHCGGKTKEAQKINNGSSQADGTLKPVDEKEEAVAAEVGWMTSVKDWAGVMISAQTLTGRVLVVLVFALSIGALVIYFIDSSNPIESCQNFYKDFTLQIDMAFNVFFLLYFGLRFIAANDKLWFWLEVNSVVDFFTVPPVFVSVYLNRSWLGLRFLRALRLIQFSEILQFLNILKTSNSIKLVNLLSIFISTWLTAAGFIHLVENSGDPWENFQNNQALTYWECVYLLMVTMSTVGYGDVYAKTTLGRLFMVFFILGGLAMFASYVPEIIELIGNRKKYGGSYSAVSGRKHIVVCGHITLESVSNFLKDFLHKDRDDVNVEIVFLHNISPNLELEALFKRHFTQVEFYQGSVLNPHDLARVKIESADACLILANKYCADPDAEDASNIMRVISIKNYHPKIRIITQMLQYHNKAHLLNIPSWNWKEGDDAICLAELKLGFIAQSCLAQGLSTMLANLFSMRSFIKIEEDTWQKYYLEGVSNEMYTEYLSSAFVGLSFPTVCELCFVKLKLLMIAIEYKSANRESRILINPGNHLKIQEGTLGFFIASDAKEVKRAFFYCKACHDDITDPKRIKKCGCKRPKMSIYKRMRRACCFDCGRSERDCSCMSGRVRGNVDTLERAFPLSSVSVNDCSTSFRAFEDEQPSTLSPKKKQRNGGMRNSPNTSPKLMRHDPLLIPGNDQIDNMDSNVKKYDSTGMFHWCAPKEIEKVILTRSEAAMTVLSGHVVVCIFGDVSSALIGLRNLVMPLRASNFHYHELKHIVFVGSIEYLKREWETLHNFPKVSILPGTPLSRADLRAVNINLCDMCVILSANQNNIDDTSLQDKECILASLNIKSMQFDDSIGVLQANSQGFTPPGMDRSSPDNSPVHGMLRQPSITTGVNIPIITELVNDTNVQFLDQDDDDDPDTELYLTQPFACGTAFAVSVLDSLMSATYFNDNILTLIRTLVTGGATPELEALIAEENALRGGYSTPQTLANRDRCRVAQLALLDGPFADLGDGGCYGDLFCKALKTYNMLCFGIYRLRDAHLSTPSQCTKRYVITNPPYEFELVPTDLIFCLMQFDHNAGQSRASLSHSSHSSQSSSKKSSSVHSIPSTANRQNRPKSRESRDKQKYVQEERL

Compound | Sensitivity of rSK3 H491N mutant to blocker (rSK3 H491N; ref Lamy et al., 2010) | further results
COc1cc2c3cc1Oc1cc(ccc1O)C[C@@H]1c4c(cc(OC)c(O)c4Oc4ccc(cc4)C[C@@H]3N(C)CC2)CC[N+]1(C)C [D-tubocurarine] | insensitive | 
c1cc2cc(c1)C[n+]1ccc(c3ccccc31)NCc1ccc(cc1)CNc1cc[n+](c3ccccc13)C2 [UCL1684] |  | Sensitivity of rSK3 H491N mutant to blocker (rSK3 H491N): insensitive
CC(C)(O)[C@H]1O[C@H]2CC[C@@]3(C)[C@@](O)(CC[C@H]4Cc5c([nH]c6ccccc56)[C@@]43C)C2=CC1=O [paxilline, reference compound] |  | Effect on remaining hBK current (reference) (hBK): totally inhibited
apamin (CNCKAPETALCARRCQQH-NH2; disulfide 1-11, 3-15; ends not checked; UniProt P01500 28-45, looked up) | insensitive | 
